Reference: patent US8546421B1, “Oncogenic-RAS-signal dependent lethal compounds” (The Trustees of Columbia University in the City of New York, priority 2007, dated 2013)
In brackets after ≈: the same amount, converted by molar mass. Entries after “also recorded” stand apart in the source; their conditions may differ. Like-named read-outs stand apart in the source and are kept apart here.

Assays:
HL-60(TB) [1] = assay: cells; settings: Homo sapiens; for GI50: HL-60; for CC50: HL-60, read-out: LC 50%
SF-268 = assay: NCI60 anti-cancer screening; settings: for GI50 / CC50: Homo sapiens; for GI50 / GI 100%: SF-268; for CC50: SF-268, read-out: LC 50%; for GI 100%: CNS Cancer
MOLT-4 = assay: NCI60 anti-cancer screening; settings: for GI50 / CC50: Homo sapiens; for GI50 / GI 100%: MOLT-4; for CC50: MOLT-4, read-out: LC 50%; for GI 100%: Leukemia
K-562 = assay: NCI60 anti-cancer screening; settings: Homo sapiens
SK-MEL-5 = assay: NCI60 anti-cancer screening; settings: for GI50 / CC50: Homo sapiens; for GI50 / GI 100%: SK-MEL-5; for CC50: SK-MEL-5, read-out: LC 50%; for GI 100%: Melanoma
T-47D = assay: NCI60 anti-cancer screening; settings: for GI50 / CC50: Homo sapiens, T47D; for CC50: read-out: LC 50%; for GI 100%: T-47D, Breast Cancer
NCI-H23 = assay: NCI60 anti-cancer screening; settings: for GI50 / CC50: Homo sapiens; for GI50 / GI 100%: NCI-H23; for CC50: NCI-H23, read-out: LC 50%; for GI 100%: Non-small cell lung carcinoma
[2] = tested on: BJ-TERT/LT/ST/RAS^V12 cells; assay: Alamar blue growth inhibition in dilution series; format: cell-based, human
HOP-92 = assay: NCI60 anti-cancer screening; settings: for GI 100% / GI50: HOP-92; for GI 100%: Non-small cell lung carcinoma; for GI50 / CC50: Homo sapiens; for CC50: HOP-92, read-out: LC 50%
SW-620 = assay: NCI60 anti-cancer screening; settings: for GI50 / CC50: Homo sapiens; for GI50 / GI 100%: SW-620; for CC50: SW-620, read-out: LC 50%; for GI 100%: Colon Cancer
TK-10 = assay: NCI60 anti-cancer screening; settings: for GI50 / CC50: Homo sapiens; for GI50 / GI 100%: TK-10; for CC50: TK-10, read-out: LC 50%; for GI 100%: Renal Cancer
MDA-MB-435 = assay: NCI60 anti-cancer screening; settings: for GI50 / CC50: Homo sapiens; for GI50 / GI 100%: MDA-MB-435; for CC50: MDA-MB-435, read-out: LC 50%; for GI 100%: Breast Cancer
SK-MEL-2 = assay: NCI60 anti-cancer screening; settings: for GI50 / CC50: Homo sapiens; for GI50 / GI 100%: SK-MEL-2; for CC50: SK-MEL-2, read-out: LC 50%; for GI 100%: Melanoma
HL-60(TB) [3] = settings: Leukemia
SF-539 = assay: NCI60 anti-cancer screening; settings: for GI50 / CC50: Homo sapiens; for GI50 / GI 100%: SF-539; for CC50: SF-539, read-out: LC 50%; for GI 100%: CNS Cancer
COLO 205 = assay: NCI60 anti-cancer screening; settings: for GI 100% / GI50: COLO 205; for GI 100%: Colon Cancer; for GI50 / CC50: Homo sapiens; for CC50: COLO 205, read-out: LC 50%
[4] = tested on: BJ cell system (BJ-TERT, BJ-TERT/LT/ST, BJ-TERT/LT/ST/RAS^V12, DRD cells); assay: Alamar blue potency and selectivity in the engineered BJ cell system; settings: oncogenic-RAS-expressing vs non-oncogenic-RAS-expressing BJ cells; alamar blue
Procedure: Empty “step-daughter plates” were filled with 50 μL DMEM, except for columns 3 and 13, where 100 μL of hit compound solution were cherry-picked from daughter plates. After compound transfer, 2-fold dilution series across columns 3 through 12 and columns 13 through 22 was made by transferring 50 μL of compound solution to the next column successively (10-point dilution series), with extensive mixing. Hit-picking and 2-fold dilution series were carried out using Biomek FX Span-8 module (Beckman Coulter). Assay plates were prepared by seeding 1,000 BJ-TERT, BJ-TERT/LT/ST, and BJ-TERT/LT/ST/RAS^V12 cells per well in 36 μL growth medium. Cells in assay plates were treated with compounds from step-daughter plates by transferring 4 μL. The final concentration of the compound was 5.33 μg/mL to 0.01 μg/mL in this 10-point, 2-fold dilution series. Assay plates were returned to the culture incubator and maintained for 48 hours before adding alamar blue.
Fresh daughter plates were made from the mother plate and cherry-picked hits from the first round, 2-fold dilution series experiment as described above. Assay plates were prepared by seeding 1,000 BJ-TERT, BJ-TERT/LT/ST, BJ-TERT/LT/ST/RAS^V12 or BJ-TERT/p53DD/CDK4/cyclinD1/ST/RAS^V12 (DRD) cells per well in 32 μL growth media. Cells in the assay plates were treated with compounds from the step-daughter plate by transferring 8 μL solution. The final concentration of the compound was 10.66 μg/mL to 0.02 μg/mL in a 10-point, 2-fold dilution series manner. Assay plates were returned to the culture incubator and maintained for 48 hours before adding alamar blue.
Cells were seeded in 384-well assay plates, treated with candidate compounds, and incubated in the culture incubator in 40 μL culture volume per well. […] Plates were incubated further for 16 hours to allow reduction of alamar blue, which results in the generation of red fluorescence. The fluorescence intensity was determined using a Victor 3 plate reader (Perkin Elmer) with a 535 nm excitation filter and a 590 nm emission filter.
In the subsequent two-fold dilution series testing, selectivity was calculated as the ratio of GI50 values in BJ-TERT/LT/ST and BJ-TERT/LT/ST/RAS^V12 cells. […] DRD cells are also derived from BJ primary cells and the effects of mutations in both lines should be similar.

HCT-116 = assay: NCI60 anti-cancer screening; settings: for GI 100% / GI50: HCT-116; for GI 100%: Colon Cancer; for GI50 / CC50: Homo sapiens; for CC50: HCT-116, read-out: LC 50%
OVCAR-8 = assay: NCI60 anti-cancer screening; settings: for GI50 / CC50: Homo sapiens; for GI50 / GI 100%: OVCAR-8; for CC50: OVCAR-8, read-out: LC 50%; for GI 100%: Ovarian Cancer
UACC-62 = assay: NCI60 anti-cancer screening; settings: for GI50 / CC50: Homo sapiens; for GI50 / GI 100%: UACC-62; for CC50: UACC-62, read-out: LC 50%; for GI 100%: Melanoma
OVCAR-3 = assay: cells; settings: Homo sapiens; for GI50: OVCAR-3; for CC50: OVCAR-3, read-out: LC 50%
SN12C = assay: NCI60 anti-cancer screening; settings: for GI50 / CC50: Homo sapiens; for CC50: read-out: LC 50%; for GI 100%: Renal Cancer
MCF-7 = assay: NCI60 anti-cancer screening; settings: for GI50 / CC50: Homo sapiens; for GI50: MCF7; for CC50: MCF7, read-out: LC 50%; for GI 100%: MCF-7, Breast Cancer
MDA-MB-231/ATCC = assay: NCI60 anti-cancer screening; settings: for GI50 / CC50: Homo sapiens; for GI50: MDA-MB-231; for CC50: MDA-MB-231, read-out: LC 50%; for GI 100%: MDA-MB-231/ATCC, Breast Cancer
NCI/ADR-RES = assay: NCI60 anti-cancer screening
A498 = assay: NCI60 anti-cancer screening
[5] = tested on: BJ-TERT/LT/ST/RAS^V12 cells; assay: Counter screening with iron chelators; format: cell-based, human; settings: DFOM and three additional iron-binding compounds; 24 hours
Procedure: Cells were treated with iron chelators by transferring 4 μL of 1 mM deferoxamine mesylate (Calbiochem, cat.#252750), 500 μM compound 1a (Chembridge, cat.#5175092), 1 mM compound 2 (Ryan Scientific, cat.#LT01784723), or 100 μM compound 311 (Chembridge, cat.#5135701) in growth media to the assay plate. Then, 4 μL was transferred from the ‘10× lethal plate’ (described in ‘counter screening with biologically active compounds’) to the assay plate in order to induce cell death. Assay plates were incubated for 24 hours and alamar blue was added to the plates at a final concentration of 10%.

CCc1c(O)c2c(c(O)c1O[C@H]1O[C@@H](COC(C)=O)[C@H](OC(C)=O)[C@@H](CC(C)=O)[C@@H]1OC(C)=O)C(=O)C(O[C@@H]1O[C@H](COC(C)=O)[C@@H](OC(C)=O)[C@H](OC(C)=O)[C@H]1OC(C)=O)=C(O[C@@H]1O[C@H](COC(C)=O)[C@@H](OC(C)=O)[C@H](OC(C)=O)[C@H]1OC(C)=O)C2=O [Compound 6]
GI50 (HL-60(TB) [1]): 516 nM | CC50 (HL-60(TB) [1]): 8.25 µM | GI50 (SF-268): 2460 nM | CC50 (SF-268): > 10000 nM | GI 100% (SF-268): 7.71 µM | GI50 (MOLT-4): 783 nM | CC50 (MOLT-4): > 10 µM | GI 100% (MOLT-4): 3.91 µM | GI50 (K-562; K562): 238 nM | CC50 (K-562; K562, read-out: LC 50%): > 10 µM | GI50 (SK-MEL-5): 5 µM | CC50 (SK-MEL-5): > 10 µM | GI 100% (SK-MEL-5): >10 µM | GI50 (T-47D): 4.53 µM | CC50 (T-47D): 9.35 µM | GI 100% (T-47D): 2.06 µM | GI50 (NCI-H23): 4170 nM | CC50 (NCI-H23): > 10 µM | GI 100% (NCI-H23): >10 µM | IC90 ([2]; Homo sapiens, alamar blue): 2.5 µg/mL (≈ 1.99 µM) | GI 100% (HOP-92): 4.31 µM | GI50 (HOP-92): 1480 nM | CC50 (HOP-92): > 10 µM | GI50 (SW-620): 271 nM | CC50 (SW-620): 3.9 µM | GI 100% (SW-620): 1.03 µM | GI50 (TK-10): 2760 nM | CC50 (TK-10): > 10 µM | GI 100% (TK-10): >10 µM | GI50 (MDA-MB-435): 2210 nM | CC50 (MDA-MB-435): 9.07 µM | GI 100% (MDA-MB-435): 4.38 µM | GI50 (SK-MEL-2): 2320 nM | CC50 (SK-MEL-2): > 10 µM | GI 100% (SK-MEL-2): 6.87 µM | GI 100% (HL-60(TB) [3]): 2.38 µM | GI50 (SF-539): 2320 nM | CC50 (SF-539): 9.59 µM | GI 100% (SF-539): 4.71 µM | GI 100% (COLO 205): 1.26 µM | GI50 (COLO 205): 232 nM | CC50 (COLO 205): 4.78 µM | degree of selectivity against HRAS^G12V [4]: 4-8 fold | GI 100% (HCT-116): 1.32 µM | GI50 (HCT-116): 376 nM | CC50 (HCT-116): 3.64 µM | GI50 (OVCAR-8): 4.22 µM | CC50 (OVCAR-8): > 10 µM | GI 100% (OVCAR-8): >10 µM | GI50 (UACC-62): 9.78 µM | CC50 (UACC-62): > 10 µM | GI 100% (UACC-62): >10 µM | GI50 (OVCAR-3): 3520 nM | CC50 (OVCAR-3): > 10 µM | GI50 (SN12C): 8.1 µM | CC50 (SN12C): > 10 µM | GI 100% (SN12C): >10 µM | GI50 (MCF-7): 1550 nM | CC50 (MCF-7): 9.18 µM | GI 100% (MCF-7): 3.78 µM | GI50 (MDA-MB-231/ATCC): 1750 nM | CC50 (MDA-MB-231/ATCC): 9.52 µM | GI 100% (MDA-MB-231/ATCC): 4.09 µM

COC(=O)c1ccc(C2c3[nH]c4ccccc4c3CC(C(=O)OC)N2C(=O)CCl)cc1 (stereo not drawn) [Compound 27]
GI50 (HL-60(TB) [1]): 280 nM | CC50 (HL-60(TB) [1]): 1.2 µM | GI50 (SF-268): 69.2 nM | CC50 (SF-268): 577 nM | GI 100% (SF-268): 0.218 µM | GI50 (MOLT-4): 1020 nM | CC50 (MOLT-4): 7.39 µM | GI 100% (MOLT-4): 2.74 µM | GI 100% (NCI/ADR-RES; Breast Cancer): >10 µM | GI50 (NCI/ADR-RES; Homo sapiens): 2560 nM | CC50 (NCI/ADR-RES; Homo sapiens, read-out: LC 50%): > 10 µM | GI50 (SK-MEL-5): 1.38 µM | CC50 (SK-MEL-5): 5.16 µM | GI 100% (SK-MEL-5): 2.67 µM | GI50 (T-47D): 1.64 µM | CC50 (T-47D): > 10 µM | GI 100% (T-47D): 5.16 µM | GI50 (NCI-H23): 1150 nM | CC50 (NCI-H23): 7.59 µM | GI 100% (NCI-H23): 2.95 µM | concentration at which growth was inhibited (as low as) [2]: ≥ 0.01 µg/mL | concentration at which growth was inhibited (as low as) ([2]; 48 hours): ≥ 0.01 µg/mL | GI 100% (HOP-92): 1.07 µM | GI50 (HOP-92): 99.1 nM | CC50 (HOP-92): 5.85 µM | GI50 (SW-620): 681 nM | CC50 (SW-620): 5.25 µM | GI 100% (SW-620): 2.09 µM | GI50 (TK-10): 1900 nM | CC50 (TK-10): 8.25 µM | GI 100% (TK-10): 3.96 µM | GI50 (MDA-MB-435): 1710 nM | CC50 (MDA-MB-435): 8.19 µM | GI 100% (MDA-MB-435): 3.74 µM | GI50 (SK-MEL-2): 1740 nM | CC50 (SK-MEL-2): 9.82 µM | GI 100% (SK-MEL-2): 4.13 µM | GI 100% (A498; A498, Renal Cancer): 4.52 µM | GI50 (A498; Homo sapiens, A498): 1830 nM | CC50 (A498; Homo sapiens, A498, read-out: LC 50%): > 10 µM | GI 100% (HL-60(TB) [3]): 0.537 µM | GI50 (SF-539): 118 nM | CC50 (SF-539): 0.492 µM | GI 100% (SF-539): 0.241 µM | GI 100% (COLO 205): 3.44 µM | GI50 (COLO 205): 1670 nM | CC50 (COLO 205): 7.07 µM | degree of selectivity against HRAS^G12V [4]: four-fold | GI 100% (HCT-116): 1.48 µM | GI50 (HCT-116): 364 nM | CC50 (HCT-116): 3.84 µM | GI50 (OVCAR-8): 2.32 µM | CC50 (OVCAR-8): > 10 µM | GI 100% (OVCAR-8): >10 µM | GI50 (UACC-62): 1.21 µM | CC50 (UACC-62): 5.04 µM | GI 100% (UACC-62): 2.47 µM | GI50 (OVCAR-3): 353 nM | CC50 (OVCAR-3): 6.59 µM | GI50 (SN12C): 1.25 µM | CC50 (SN12C): 6.12 µM | GI 100% (SN12C): 2.77 µM | effect of iron chelators on compound activity / induced cell death [5]: suppressed by all of these iron chelators moderately; also recorded: significantly inhibited | GI50 (MCF-7): 782 nM | CC50 (MCF-7): > 10 µM | GI 100% (MCF-7): 3.98 µM | GI50 (MDA-MB-231/ATCC): 1200 nM | CC50 (MDA-MB-231/ATCC): 9.18 µM | GI 100% (MDA-MB-231/ATCC): 3.32 µM
